Test results reported in PubChem BioAssay (NCI).
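Exposure lasted 48 hours, with cells grown in 96-well plates and compounds tested at five concentrations. TGI: concentration producing complete growth inhibition.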 Where a SMILES comes first, the peptide text is derived from it. [ ]: non-standard residue; d: D form. The star is where a group is joined. ξ: configuration not given here. ξPhe(4-NO2) = NC(Cc1ccc([N+](=O)[O-])cc1)C(=O)O; Boc = CC(C)(C)OC(=O)*; OBn = c1ccc(CO*)cc1

Legend:
Assay in all cases: inhibition of tumour cell growth, NCI panel, 48 h
MDA-N = tested on: MDA-N
SNB-19 CNS = tested on: SNB-19 CNS
MCF7 breast = tested on: MCF7 breast
HS 578T breast = tested on: HS 578T breast
SK-MEL-28 melanoma = tested on: SK-MEL-28 melanoma
A549 NSCLC = tested on: A549 NSCLC
T-47D breast = tested on: T-47D breast
SK-MEL-2 melanoma = tested on: SK-MEL-2 melanoma
NCI-H522 lung = tested on: NCI-H522 lung
NCI/ADR-RES ovarian = tested on: NCI/ADR-RES ovarian
DU-145 prostate = tested on: DU-145 prostate
HL-60(TB) leukemia = tested on: HL-60(TB) leukemia
MOLT-4 leukemia = tested on: MOLT-4 leukemia
UO-31 renal = tested on: UO-31 renal

`CC1=NN2C(=O)CC(=O)N=C2S1` showed a TGI (MDA-N) of over 100 µM, a TGI (SNB-19 CNS) of over 100 µM and a TGI (MCF7 breast) of over 100 µM. It also gave a TGI (HS 578T breast) of over 100 µM, a TGI (SK-MEL-28 melanoma) of over 100 µM and a TGI (A549 NSCLC) of over 100 µM. For the same molecule, the TGI (T-47D breast) was over 100 µM, the TGI (SK-MEL-2 melanoma) was over 100 µM and the TGI (NCI-H522 lung) was over 100 µM. For the same molecule, the TGI (NCI/ADR-RES ovarian) was over 100 µM, the TGI (DU-145 prostate) was over 100 µM and the TGI (HL-60(TB) leukemia) was over 100 µM. It also gave a TGI (MOLT-4 leukemia) of over 100 µM.
Work on `CC(C)(C)OC(=O)NC(Cc1ccc([N+](=O)[O-])cc1)C(=O)NCC(=O)OCc1ccccc1` (stereo unspecified) (Boc-[ξPhe(4-NO2)]-Gly-OBn) yielded a TGI (MDA-N) of 39.8 µM, a TGI (SNB-19 CNS) of over 100 µM and a TGI (MCF7 breast) of over 100 µM. For the same molecule, the TGI (UO-31 renal) was 45.4 µM, the TGI (HS 578T breast) was 54 µM and the TGI (SK-MEL-28 melanoma) was 47.3 µM. For the same molecule, the TGI (A549 NSCLC) was over 100 µM, the TGI (T-47D breast) was over 100 µM and the TGI (NCI-H522 lung) was 53 µM. It also gave a TGI (NCI/ADR-RES ovarian) of over 100 µM, a TGI (DU-145 prostate) of 81.8 µM and a TGI (HL-60(TB) leukemia) of over 100 µM. It also gave a TGI (MOLT-4 leukemia) of 48.1 µM.
Molecule `Cc1cn(CC2=NCC(C)(C)CN2)c(=O)[nH]c1=O` has a TGI (MDA-N) of over 100 µM, a TGI (SNB-19 CNS) of over 100 µM and a TGI (MCF7 breast) of over 100 µM. For the same molecule, the TGI (UO-31 renal) was over 100 µM, the TGI (HS 578T breast) was over 100 µM and the TGI (SK-MEL-28 melanoma) was over 100 µM. For the same molecule, the TGI (A549 NSCLC) was over 100 µM, the TGI (T-47D breast) was over 100 µM and the TGI (SK-MEL-2 melanoma) was over 100 µM. It also gave a TGI (NCI-H522 lung) of over 100 µM, a TGI (NCI/ADR-RES ovarian) of over 100 µM and a TGI (DU-145 prostate) of over 100 µM. The TGI (HL-60(TB) leukemia) was over 100 µM.
Work on `CS(=O)(=O)c1[nH]nc2[nH]c(=O)[nH]c(=O)c12` yielded a TGI (MDA-N) of over 10 µM, a TGI (SNB-19 CNS) of over 10 µM and a TGI (MCF7 breast) of over 10 µM. For the same molecule, the TGI (HS 578T breast) was over 10 µM, the TGI (SK-MEL-28 melanoma) was over 10 µM and the TGI (A549 NSCLC) was over 10 µM. The TGI (T-47D breast) was over 10 µM, the TGI (SK-MEL-2 melanoma) was over 10 µM and the TGI (NCI-H522 lung) was over 10 µM. It also gave a TGI (NCI/ADR-RES ovarian) of over 10 µM, a TGI (DU-145 prostate) of over 10 µM and a TGI (HL-60(TB) leukemia) of over 10 µM. For the same molecule, the TGI (MOLT-4 leukemia) was over 10 µM.
`CC1(C)C=C(/C=N/Nc2ccc(Br)cc2)C(C#N)=C(O)C1(C#N)C#N` gave a TGI (MDA-N) of over 100 µM, a TGI (SNB-19 CNS) of over 100 µM and a TGI (MCF7 breast) of over 100 µM. It also gave a TGI (UO-31 renal) of 86 µM, a TGI (HS 578T breast) of over 100 µM and a TGI (SK-MEL-28 melanoma) of over 100 µM. For the same molecule, the TGI (A549 NSCLC) was over 100 µM, the TGI (T-47D breast) was over 100 µM and the TGI (NCI-H522 lung) was over 100 µM. The TGI (NCI/ADR-RES ovarian) was over 100 µM, the TGI (DU-145 prostate) was over 100 µM and the TGI (HL-60(TB) leukemia) was 88.1 µM. It also gave a TGI (MOLT-4 leukemia) of 89.8 µM.
Work on `CC(=O)O[C@H]1C(=O)[C@@]2(C)[C@H]([C@H](OC(=O)c3ccc([N+](=O)[O-])cc3)[C@]3(O)C[C@H](OC(=O)[C@H](O)[C@@H](NC(=O)c4ccccc4)c4ccccc4)C(C)=C1C3(C)C)[C@]1(OC(C)=O)CO[C@@H]1C[C@@H]2O` yielded a TGI (MDA-N) of over 25 µM, a TGI (SNB-19 CNS) of over 25 µM and a TGI (MCF7 breast) of over 25 µM. It also gave a TGI (UO-31 renal) of over 25 µM, a TGI (HS 578T breast) of over 25 µM and a TGI (SK-MEL-28 melanoma) of over 25 µM. It also gave a TGI (A549 NSCLC) of over 25 µM, a TGI (T-47D breast) of over 25 µM and a TGI (NCI-H522 lung) of over 25 µM. It also gave a TGI (NCI/ADR-RES ovarian) of over 25 µM, a TGI (DU-145 prostate) of over 25 µM and a TGI (HL-60(TB) leukemia) of over 25 µM. For the same molecule, the TGI (MOLT-4 leukemia) was over 25 µM.
`C[C@]12CC(c3ccccc3O1)C(C#N)C(=O)N2` (stereo partly specified) showed a TGI (MDA-N) of over 100 µM, a TGI (SNB-19 CNS) of over 100 µM and a TGI (MCF7 breast) of over 100 µM. The TGI (HS 578T breast) was over 100 µM, the TGI (SK-MEL-28 melanoma) was over 100 µM and the TGI (A549 NSCLC) was over 100 µM. For the same molecule, the TGI (T-47D breast) was over 100 µM, the TGI (SK-MEL-2 melanoma) was over 100 µM and the TGI (NCI/ADR-RES ovarian) was over 100 µM. The TGI (DU-145 prostate) was over 100 µM, the TGI (HL-60(TB) leukemia) was over 100 µM and the TGI (MOLT-4 leukemia) was over 100 µM.
In the case of `O=c1oc2cc(O)ccc2c(O)c1C(c1ccccn1)c1c(O)c2ccc(O)cc2oc1=O`, the TGI (MDA-N) is reported as over 100 µM, the TGI (SNB-19 CNS) is reported as over 100 µM and the TGI (MCF7 breast) is reported as over 100 µM. For the same molecule, the TGI (UO-31 renal) was over 100 µM, the TGI (HS 578T breast) was over 100 µM and the TGI (SK-MEL-28 melanoma) was over 100 µM. For the same molecule, the TGI (A549 NSCLC) was over 100 µM, the TGI (T-47D breast) was over 100 µM and the TGI (SK-MEL-2 melanoma) was over 100 µM. The TGI (NCI-H522 lung) was over 100 µM, the TGI (NCI/ADR-RES ovarian) was over 100 µM and the TGI (DU-145 prostate) was over 100 µM. It also gave a TGI (MOLT-4 leukemia) of over 100 µM.
For `COc1ccc(C2CC(=O)Oc3ccccc3O2)cc1` (stereo unspecified), the TGI (MDA-N) was over 100 µM, the TGI (SNB-19 CNS) was over 100 µM and the TGI (MCF7 breast) was over 100 µM. For the same molecule, the TGI (UO-31 renal) was over 100 µM, the TGI (HS 578T breast) was over 100 µM and the TGI (SK-MEL-28 melanoma) was over 100 µM. It also gave a TGI (A549 NSCLC) of over 100 µM, a TGI (T-47D breast) of over 100 µM and a TGI (NCI-H522 lung) of 93.2 µM. For the same molecule, the TGI (NCI/ADR-RES ovarian) was over 100 µM, the TGI (DU-145 prostate) was over 100 µM and the TGI (HL-60(TB) leukemia) was over 100 µM. For the same molecule, the TGI (MOLT-4 leukemia) was over 100 µM.
Work on `CCCC(=O)N/S(=N/S(=O)(=O)c1ccc(Cl)cc1)C(Cl)(Cl)Cl` (stereo unspecified) yielded a TGI (MDA-N) of over 100 µM, a TGI (SNB-19 CNS) of over 100 µM and a TGI (MCF7 breast) of over 100 µM. The TGI (UO-31 renal) was over 100 µM, the TGI (HS 578T breast) was over 100 µM and the TGI (SK-MEL-28 melanoma) was over 100 µM. The TGI (A549 NSCLC) was over 100 µM, the TGI (T-47D breast) was over 100 µM and the TGI (SK-MEL-2 melanoma) was over 100 µM. For the same molecule, the TGI (NCI/ADR-RES ovarian) was over 100 µM, the TGI (DU-145 prostate) was over 100 µM and the TGI (HL-60(TB) leukemia) was over 100 µM. For the same molecule, the TGI (MOLT-4 leukemia) was over 100 µM.
In the case of `COc1ccc(C2SC(N)=Nc3c2c(C)nn3C(=O)c2ccc(Cl)cc2)cc1` (stereo unspecified), the TGI (MDA-N) is reported as over 10 µM, the TGI (SNB-19 CNS) is reported as over 10 µM and the TGI (MCF7 breast) is reported as over 10 µM. It also gave a TGI (HS 578T breast) of over 10 µM, a TGI (SK-MEL-28 melanoma) of over 10 µM and a TGI (A549 NSCLC) of over 10 µM. The TGI (T-47D breast) was over 10 µM, the TGI (SK-MEL-2 melanoma) was over 10 µM and the TGI (NCI-H522 lung) was over 10 µM. It also gave a TGI (NCI/ADR-RES ovarian) of over 10 µM, a TGI (DU-145 prostate) of over 10 µM and a TGI (HL-60(TB) leukemia) of over 10 µM. It also gave a TGI (MOLT-4 leukemia) of over 10 µM.
Molecule `CCOC(=O)c1cc(C2CCN(CC(C)CC)C2=S)c(C(=O)/C=C(/C)N)[nH]1` (stereo unspecified) has a TGI (MDA-N) of over 50 µM, a TGI (SNB-19 CNS) of over 50 µM and a TGI (MCF7 breast) of over 50 µM. The TGI (UO-31 renal) was over 50 µM, the TGI (HS 578T breast) was over 50 µM and the TGI (T-47D breast) was over 50 µM. It also gave a TGI (SK-MEL-2 melanoma) of over 50 µM, a TGI (NCI/ADR-RES ovarian) of over 50 µM and a TGI (DU-145 prostate) of over 50 µM. For the same molecule, the TGI (HL-60(TB) leukemia) was over 50 µM and the TGI (MOLT-4 leukemia) was over 50 µM.
`CC1(C)C=[N+]([O-])C(C)(C)N1` gave a TGI (MDA-N) of over 100 µM, a TGI (SNB-19 CNS) of over 100 µM and a TGI (MCF7 breast) of over 100 µM. For the same molecule, the TGI (UO-31 renal) was over 100 µM, the TGI (HS 578T breast) was over 100 µM and the TGI (SK-MEL-28 melanoma) was over 100 µM. It also gave a TGI (A549 NSCLC) of over 100 µM, a TGI (T-47D breast) of over 100 µM and a TGI (SK-MEL-2 melanoma) of over 100 µM. The TGI (NCI/ADR-RES ovarian) was over 100 µM, the TGI (DU-145 prostate) was over 100 µM and the TGI (HL-60(TB) leukemia) was over 100 µM. It also gave a TGI (MOLT-4 leukemia) of over 100 µM.
